Data on 8 molecules can be found in publication PMC10196118, “Evidence for broad cross-reactivity of the SARS-CoV-2 NSP12-directed CD4^+ T-cell response with pre-primed responses directed against common cold coronaviruses” (Frontiers in Immunology, 2023).

Each structure is given as a SMILES string.

What all share (assay): biochemical
Holding throughout (assay type): binding

Test [1] addresses HLA DRB1*07:01 (Homo sapiens, UniProt P01903+P01911, A100R/A102G/A103Q/D57E/D86V/E43K/F76Y/K127E/L162R/M171V/P40G/Q125H/Q99D/R33Q/R42Y/R54Q/S133A/S66F/T210M/V115G/Y107V/Y59L/Y89S). The conditions noted are these: binder threshold 1,000 nM, read-out: In vitro (IC50 nM) DRB1*07:01.
For test [2], the target named is HLA DRB1*04:01 (Homo sapiens, UniProt P01903+P01911, A100K/A169T/F76Y/I96L/K127E/L162R/M171V/N62H/P40V/Q125Y/R42H/S133A/S149N/S66Y/V115G/V209L/W38E). The note with it: binder threshold 1,000 nM, read-out: In vitro (IC50 nM) DRB1*04:01.
Test [3] addresses HLA DRB1*15:01 (Homo sapiens, UniProt P01903+P01911). The conditions noted are these: binder threshold 1,000 nM, read-out: In vitro (IC50 nM) DRB1*15:01.
Test [4] has as its target HLA DRB1*04:05 (Homo sapiens, UniProt P01903+P01911, A100R/A169T/D86S/F76Y/I96L/K127E/L162R/M171V/N62H/P40V/Q125Y/R42H/S133A/S149N/S66Y/V115G/V209L/W38E). The note with it: binder threshold 1,000 nM, read-out: In vitro (IC50 nM) DRB1*04:05.
The target of test [5] is HLA DRB1*01:01 (Homo sapiens, UniProt P01903+P01911, A100R/D57E/F55L/F60I/F76Y/I96L/L162R/M171V/P40L/Q125E/R42F/V115G/Y59C). The note with it: binder threshold 1,000 nM, read-out: In vitro (IC50 nM) DRB1*01:01.
The target in test [6] is HLA DRB1*11:01 (Homo sapiens, UniProt P01903+P01911, A100R/A169T/A87E/I96F/K41T/L162R/M171V/P40S/Q125H/Q178H/Q39Y/Q99D/R42S/S66Y/T262R/V115G/W38E). The note with it: binder threshold 1,000 nM, read-out: In vitro (IC50 nM) DRB1*11:01.
Sequence of HLA DRB1*11:01 (P01903 26-254, other chains not shown): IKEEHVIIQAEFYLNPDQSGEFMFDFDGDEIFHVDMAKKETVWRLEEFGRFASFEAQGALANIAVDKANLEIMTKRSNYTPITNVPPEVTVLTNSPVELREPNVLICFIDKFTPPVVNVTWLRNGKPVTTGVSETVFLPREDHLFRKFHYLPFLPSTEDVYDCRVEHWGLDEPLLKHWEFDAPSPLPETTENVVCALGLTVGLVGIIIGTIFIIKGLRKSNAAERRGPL
The target of test [7] is HLA DRB1*12:01 (Homo sapiens, UniProt P01903+P01911, A100R/A169T/D57E/D86V/F55L/H45Y/K41T/L162R/M171V/P40S/Q125H/Q178H/Q39Y/Q99D/R42G/S66L/T262R/V114A/V67L/W38E/Y59H/Y61H/Y89S). The conditions noted are these: binder threshold 1,000 nM, read-out: In vitro (IC50 nM) DRB1*12:01.
For test [8], the target named is HLA DRB1*09:01 (Homo sapiens, UniProt P01903+P01911, A100R/A103E/D57H/D86V/F55Y/F60I/F76Y/I96F/K127E/L162R/M171V/P40D/Q125H/Q99R/R33Q/R42F/S133A/S66N/T210M/V115G/W38K/Y107V/Y59G/Y89S). The conditions noted are these: binder threshold 1,000 nM, read-out: In vitro (IC50 nM) DRB1*09:01.
Test [9] has as its target HLA DRB1*08:02 (Homo sapiens, UniProt P01903+P01911, A100R/A103L/A169T/F76Y/H45Y/I96F/K41T/L162R/M171V/P40S/Q125H/Q178H/Q39Y/Q99D/R218S/R42G/S66Y/V115G/W38E). The conditions noted are these: binder threshold 1,000 nM, read-out: In vitro (IC50 nM) DRB1*08:02.
The target in test [10] is HLA DRB1*03:01 (Homo sapiens, UniProt P01903+P01911, A100K/A102G/A103R/A169T/F55Y/I96L/K41T/L162R/M171V/P40S/Q125H/Q178H/Q39Y/R42S/S66N/T106N/T262R/W38E/Y61H). The conditions noted are these: binder threshold 1,000 nM, read-out: In vitro (IC50 nM) DRB1*03:01.
Sequence of HLA DRB1*03:01 (P01903 26-254, other chains not shown): as above
Test [11] addresses HLA DRB1*13:02 (Homo sapiens, UniProt P01903+P01911, A100E/A169T/K41T/L162R/M171V/P40S/Q125H/Q178H/Q39Y/Q99D/R42S/S66N/T262R/V115G/W38E/Y61H). The conditions noted are these: binder threshold 1,000 nM, read-out: In vitro (IC50 nM) DRB1*13:02.

Sequence of HLA DRB1*13:02 (P01903 26-254 limits assumed, other chains not shown): as the sequence (P01903 26-254, other chains not shown) above

Consider `CC(C)[C@H](NC(=O)[C@H](CO)NC(=O)[C@H](CC(N)=O)NC(=O)[C@H](C)NC(=O)[C@H](Cc1ccc(O)cc1)NC(=O)[C@H](C)NC(=O)[C@@H](NC(=O)[C@@H](NC(=O)[C@H](C)NC(=O)[C@H](CC(=O)O)NC(=O)CNC(=O)[C@H](CO)NC(=O)[C@@H](N)CO)[C@@H](C)O)[C@@H](C)O)C(=O)N[C@@H](Cc1ccccc1)C(=O)N[C@@H](CC(N)=O)C(=O)O` [Peptide 137], for which the IC50 in [1] amounted to 3970 nM; in [2], 5180 nM; in test [3] it was 567 nM; in [4], 27200 nM; in [5], 1800 nM; in test [6], 15900 nM. Besides, the results for the IC50 in test [7] and in test [8] were 22700 nM and 197 nM, respectively.
Consider `CSCC[C@H](NC(=O)[C@H](CO)NC(=O)[C@H](Cc1ccccc1)NC(=O)[C@H](Cc1c[nH]cn1)NC(=O)[C@H](CCCCN)NC(=O)[C@H](CCCNC(=N)N)NC(=O)[C@H](CC(C)C)NC(=O)[C@H](Cc1ccc(O)cc1)NC(=O)[C@H](C)NC(=O)[C@H](Cc1ccc(O)cc1)NC(=O)[C@H](Cc1ccccc1)NC(=O)[C@H](CCC(=O)O)NC(=O)[C@H](CC(N)=O)NC(=O)[C@@H](NC(=O)[C@@H](N)Cc1ccccc1)C(C)C)C(=O)O` [NSP12_149], for which the IC50 in test [1] is 3830 nM; in test [2], 8370 nM; in test [3] it was 1250 nM; in test [5], 36100 nM; in [6] it was 70 nM; in test [9], 828 nM. The IC50 in [7] was 2540 nM; in [8] it was 2510 nM.
Take `CC(C)C[C@H](NC(=O)[C@H](C)NC(=O)[C@H](CCCNC(=N)N)NC(=O)[C@@H](NC(=O)[C@H](CC(C)C)NC(=O)[C@@H](N)[C@@H](C)O)[C@@H](C)O)C(=O)N[C@H](C(=O)N[C@@H](C)C(=O)N[C@@H](CCC(=O)O)C(=O)N[C@@H](CO)C(=O)N[C@@H](Cc1c[nH]cn1)C(=O)N[C@H](C(=O)N[C@@H](CC(=O)O)C(=O)N[C@H](C(=O)N[C@@H](CC(=O)O)C(=O)O)[C@@H](C)O)C(C)C)[C@@H](C)O` [NSP12_50]: the IC50 is 14 nM in [1]; 4.1 nM in test [2]; 1290 nM in [3]; 99 nM in [4]; 2100 nM in test [5]; 301 nM in [6]. Further, the IC50 in [9] turned out to be 501 nM; in test [10] it was 1640 nM; in [7] it was 4490 nM; in test [8], 59 nM.
Take `CC(C)C[C@H](NC(=O)[C@H](Cc1ccc(O)cc1)NC(=O)[C@H](C)NC(=O)[C@H](Cc1ccc(O)cc1)NC(=O)[C@H](Cc1ccccc1)NC(=O)[C@H](CCC(=O)O)NC(=O)[C@H](CC(N)=O)NC(=O)[C@@H](NC(=O)[C@H](Cc1ccccc1)NC(=O)[C@H](CC(=O)O)NC(=O)[C@@H](NC(=O)[C@H](CC(=O)O)NC(=O)[C@@H](NC(=O)[C@@H](N)CC(=O)O)C(C)C)[C@@H](C)O)C(C)C)C(=O)N[C@@H](CCCNC(=N)N)C(=O)O` [Peptide 148]: the IC50 in test [2] is 16900 nM; in test [3] it was 1180 nM; in test [5] it was 856 nM; in test [6], 949 nM; in [9] it was 2200 nM; in test [10], 28500 nM. Further, the IC50 in [8] worked out at 6950 nM.
As to `CC[C@H](C)[C@H](NC(=O)[C@H](CC(=O)O)NC(=O)[C@H](CS)NC(=O)[C@H](CCSC)NC(=O)[C@@H](NC(=O)[C@@H]1CCCN1C(=O)[C@H](CC(C)C)NC(=O)[C@H](CC(N)=O)NC(=O)[C@H](Cc1ccc(O)cc1)NC(=O)[C@H](CCCNC(=N)N)NC(=O)[C@@H](N)Cc1ccc(O)cc1)[C@@H](C)O)C(=O)N[C@@H](CCCNC(=N)N)C(=O)N[C@@H](CCC(N)=O)C(=O)N[C@@H](CC(C)C)C(=O)N[C@@H](CC(C)C)C(=O)O` [Peptide 92], the IC50 is 1840 nM in test [1]; 5310 nM in test [2]; 2910 nM in test [3]; 4640 nM in test [4]; 12000 nM in [5]; 8940 nM in [6]. The results for the concentration for half-maximal inhibition (IC50) in test [7] and in test [8] were 5120 nM and 1490 nM, respectively.
As to `CSCC[C@H](NC(=O)[C@@H](NC(=O)[C@@H]1CCCN1C(=O)[C@H](CC(C)C)NC(=O)[C@H](CC(N)=O)NC(=O)[C@H](Cc1ccc(O)cc1)NC(=O)[C@H](CCCNC(=N)N)NC(=O)[C@H](Cc1ccc(O)cc1)NC(=O)[C@H](Cc1ccc(O)cc1)NC(=O)[C@H](CC(=O)O)NC(=O)[C@H](Cc1ccc(O)cc1)NC(=O)[C@H](CC(=O)O)NC(=O)[C@@H](N)CO)[C@@H](C)O)C(=O)N[C@@H](CS)C(=O)N[C@@H](CC(=O)O)C(=O)O` [Peptide 91], the IC50 was 549 nM in test [1]; 830 nM in test [2]; 1480 nM in test [3]; 3280 nM in test [4]; 6670 nM in [5]; 13600 nM in test [11]. The IC50 in [6] is 18200 nM; in test [9] it was 3510 nM; in [7], 29600 nM; in [8], 1430 nM.
Regarding `CC[C@H](C)[C@H](NC(=O)[C@@H]1CCCN1C(=O)[C@H](CCSC)NC(=O)[C@H](CC(C)C)NC(=O)[C@H](CC(C)C)NC(=O)[C@H](CO)NC(=O)[C@H](Cc1ccc(O)cc1)NC(=O)[C@H](Cc1ccc(O)cc1)NC(=O)[C@@H](N)CO)C(=O)N[C@@H](CC(C)C)C(=O)N[C@H](C(=O)N[C@@H](CC(C)C)C(=O)N[C@H](C(=O)N[C@@H](CCCNC(=N)N)C(=O)N[C@@H](C)C(=O)O)[C@@H](C)O)[C@@H](C)O` [NSP12_48], the half-inhibitory concentration (IC50) turned out to be 115 nM in test [1]; 224 nM in [2]; 23 nM in test [3]; 147 nM in test [4]; 7.7 nM in test [5]; 73 nM in [6]. Moreover, the 50% inhibitory concentration (IC50) in test [9] worked out at 498 nM; in test [10], 9120 nM; in test [7] it was 1350 nM; in test [8], 1550 nM.
Regarding `CC(C)C[C@H](NC(=O)[C@H](C)NC(=O)[C@H](CC(=O)O)NC(=O)[C@H](CCC(N)=O)NC(=O)[C@H](CC(=O)O)NC(=O)[C@H](CCC(=O)O)NC(=O)[C@@H](N)Cc1ccc(O)cc1)C(=O)N[C@@H](Cc1ccccc1)C(=O)N[C@@H](C)C(=O)N[C@@H](Cc1ccc(O)cc1)C(=O)N[C@H](C(=O)N[C@@H](CCCCN)C(=O)N[C@@H](CCCNC(=N)N)C(=O)N[C@@H](CC(N)=O)C(=O)N[C@H](C(=O)O)C(C)C)[C@@H](C)O` [Peptide 105], the IC50 in [1] was found to be 35 nM; in test [2], 3090 nM; in [3] it was 480 nM; in test [5] it was 16000 nM; in test [6], 21 nM; in test [9], 495 nM. Moreover, the IC50 in test [10] worked out at 39400 nM; in test [8], 8570 nM.
